These results are taken from article PMC7730235, “Discovery of a Novel Class of Covalent Dual Inhibitors Targeting the Protein Kinases BMX and BTK” (International Journal of Molecular Sciences, 2020).

The target in experiment [1] is T1, JAK3 (Homo sapiens, UniProt P52333).
T1 construct: purchased Reaction Biology Corporation
T1 sequence (P52333 1-1124): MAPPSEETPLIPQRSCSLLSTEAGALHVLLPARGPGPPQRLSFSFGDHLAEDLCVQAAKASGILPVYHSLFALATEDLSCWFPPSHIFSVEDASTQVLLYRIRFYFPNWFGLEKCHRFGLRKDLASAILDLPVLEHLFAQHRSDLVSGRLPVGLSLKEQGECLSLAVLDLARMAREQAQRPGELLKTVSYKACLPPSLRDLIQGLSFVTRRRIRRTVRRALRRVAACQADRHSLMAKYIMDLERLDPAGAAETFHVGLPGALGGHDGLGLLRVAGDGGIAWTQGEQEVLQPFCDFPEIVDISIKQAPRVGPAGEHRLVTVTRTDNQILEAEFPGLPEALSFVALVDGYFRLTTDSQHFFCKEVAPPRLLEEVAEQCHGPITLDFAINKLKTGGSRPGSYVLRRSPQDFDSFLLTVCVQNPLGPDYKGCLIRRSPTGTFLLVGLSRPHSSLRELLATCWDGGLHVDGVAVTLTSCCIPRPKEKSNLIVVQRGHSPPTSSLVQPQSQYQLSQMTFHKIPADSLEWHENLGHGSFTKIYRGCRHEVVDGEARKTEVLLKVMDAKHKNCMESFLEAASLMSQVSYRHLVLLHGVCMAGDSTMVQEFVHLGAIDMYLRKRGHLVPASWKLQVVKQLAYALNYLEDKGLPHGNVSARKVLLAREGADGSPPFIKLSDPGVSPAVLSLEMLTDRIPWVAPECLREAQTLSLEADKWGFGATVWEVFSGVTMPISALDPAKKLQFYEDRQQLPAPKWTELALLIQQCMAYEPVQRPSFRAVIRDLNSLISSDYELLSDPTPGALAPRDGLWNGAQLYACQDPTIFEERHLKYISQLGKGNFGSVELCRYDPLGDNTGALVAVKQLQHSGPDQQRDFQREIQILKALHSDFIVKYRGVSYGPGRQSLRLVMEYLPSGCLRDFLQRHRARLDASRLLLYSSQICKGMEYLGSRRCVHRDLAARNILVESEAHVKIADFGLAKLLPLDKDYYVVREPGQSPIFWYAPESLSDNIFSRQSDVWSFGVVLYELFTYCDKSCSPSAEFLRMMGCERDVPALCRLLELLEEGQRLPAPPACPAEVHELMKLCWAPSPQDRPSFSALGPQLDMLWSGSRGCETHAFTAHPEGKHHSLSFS
Kind of experiment: Radiometric kinase assay (Reaction Biology HotSpot). As to conditions: radiometric HotSpot, five-dose singlicate, [ATP] = 10 μM. The class given is biochemical. The protocol:
(§1) If not mentioned differently, in vitro profiling of compounds was performed at Reaction Biology Corporation using the HotSpot™ assay platform.

The target in experiment [2] is T2, BMX (Homo sapiens, UniProt P51813).
T2 construct: purchased Reaction Biology Corporation
T2 sequence (P51813 1-675): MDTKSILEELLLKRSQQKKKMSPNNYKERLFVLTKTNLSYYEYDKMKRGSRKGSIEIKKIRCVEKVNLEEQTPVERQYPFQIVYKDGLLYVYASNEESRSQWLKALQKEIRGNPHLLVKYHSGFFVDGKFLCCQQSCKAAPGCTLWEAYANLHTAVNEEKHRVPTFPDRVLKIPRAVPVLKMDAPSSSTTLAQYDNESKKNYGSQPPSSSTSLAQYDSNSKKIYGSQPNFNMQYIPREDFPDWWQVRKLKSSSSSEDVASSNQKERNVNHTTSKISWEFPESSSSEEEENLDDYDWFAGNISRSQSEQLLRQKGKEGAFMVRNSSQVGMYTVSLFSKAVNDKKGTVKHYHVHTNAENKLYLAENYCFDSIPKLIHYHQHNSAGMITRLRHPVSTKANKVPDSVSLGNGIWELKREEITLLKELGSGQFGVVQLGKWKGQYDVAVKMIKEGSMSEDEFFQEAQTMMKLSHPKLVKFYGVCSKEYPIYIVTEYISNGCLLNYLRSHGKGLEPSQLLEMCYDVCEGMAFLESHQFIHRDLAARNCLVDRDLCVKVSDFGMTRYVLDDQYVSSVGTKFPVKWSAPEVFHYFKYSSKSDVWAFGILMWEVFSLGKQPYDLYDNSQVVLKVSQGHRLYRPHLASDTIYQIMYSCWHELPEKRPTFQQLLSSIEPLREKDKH
The description is as above. The format is biochemical. As to conditions: radiometric HotSpot, five-dose singlicate, [ATP] = 10 μM. As for the experimental part:
as §1

Experiment [3] addresses T3, kinase domain of BMX (Homo sapiens, UniProt P51813).
T3 construct: The kinase domains of JAK3 and BMX at 2 μM
The experiment is described as follows: Mass spectrometric investigation of covalent binding to BMX (ESI-TOF). The following applies: 4 °C; for covalent labeling of BMX (in words): 1.5-fold molar excess, complete labeling refers to 30 min. The protocol:
The kinase domain of BMX was diluted to 0.05 mM with buffer containing 20 mM Tris pH 8.0, 200 mM NaCl, 0.5 mM TCEP (pH 7.0) and was subsequently mixed with 0.075 mM inhibitors (ratio of protein to inhibitor of 1:1.5). The mixture was incubated at 4°C. The samples were taken at different time points, the reaction stopped by diluting the sample with a 200-fold excess of 1% formic acid. The denatured protein and the adducts were assessed using electrospray time-of-flight (ESI-TOF) mass spectrometry.

In experiment [4] the target is T3, kinase domain of BMX. The experiment is described as follows: Thermal shift (ΔTm) assay. The format is binding. The following applies: 2 μM kinase domain, 10 μM inhibitor; mean ± SD of at least three measurements. The protocol: (§2) The kinase domains of JAK3 and BMX at 2 μM were mixed with the inhibitors at 10 μM, and subsequently SyPRO orange dye (Invitrogen Carlsbad, CA, USA) was added. The thermal shift assay and data evaluation were performed as described previously using a Real-Time PCR Mx3005p machine (Stratagene, La Jolla, CA, USA).

In experiment [5] the target is T4, kinase domain of JAK3 (Homo sapiens, UniProt P52333).
T4 construct: The kinase domains of JAK3 and BMX at 2 μM; made in house
Kind of experiment: Thermal shift (ΔTm) assay. As to conditions: 2 μM kinase domain, 10 μM inhibitor; mean ± SD of at least three measurements. The class given is binding. The protocol: as §2

Experiment [6] addresses T5, Full length BTK (C-terminal NanoLuc fusion) (Homo sapiens, UniProt Q06187).
T5 construct: Full length BMX and BTK was cloned into pFC32K; expressed in transfected cells; host or cells: HEK293T
The experiment is described as follows: Cellular NanoBRET target engagement assay in HEK293T cells. As to conditions: 0.5 µM Tracer K5, 2 h incubation. The class given is cell-based. As for the experimental part:
(§3) Full length BMX and BTK was cloned into pFC32K (Promega, Madison, WI, USA) for expression of a C-terminal NanoLuc fusion. The plasmids were transfected into HEK293T cells cultured in DMEM (Gibco, Waltham, MA, USA) supplemented with 10% fetal bovine serum (Gibco, Waltham, MA, USA) and Penicillin/Streptamycin (Gibco, Waltham, MA, USA). NanoBRET assays were performed using the protocol published previously. Briefly, after transfection and 20 h incubation cells were harvested and subsequently resuspended in OptiMEM (Gibco, Waltham, MA, USA). Cells were aliquoted onto […] (Greiner, Kremsmünster, Austria), and inhibitors as well as 0.5 µM Tracer K4 (Promega) for BMX or 0.5 µM Tracer K5 (Promega, Madison, WI, USA) for BTK were added using an ECHO acoustic dispenser. The plates were incubated at 37 °C with 5% CO2 for 2 h prior to the addition of both NanoBRET NanoGlo substrate (Promega, Madison, WI, USA) and extracellular NanoLuc inhibitor. BRET luminescence (450 nm for donor emission and 610 nm for BRET signal) was measured using PHERAstar FSX plate reader (BMG Labtech, Ortenberg, Germany). Milli-BRET units (mBU) were calculated as a ratio between BRET signal and the overall measured luminescence. A dose–response fitting was applied and IC50 values were calculated using the Prism software. […] Experiments were performed as tripicates and repeated at least three times.

The target in experiment [7] is T6, Full length BMX (C-terminal NanoLuc fusion) (Homo sapiens, UniProt P51813).
T6 construct: Full length BMX and BTK was cloned into pFC32K; expressed in transfected cells; host or cells: HEK293T
T6 sequence (P51813 1-675): T2 sequence (P51813 1-675)
The description is as above. The following applies: 0.5 µM Tracer K4, 2 h incubation. The class given is cell-based. The protocol:
as §3

Experiment [8] deals with T7, TXK (Homo sapiens, UniProt P42681).
T7 construct: purchased Reaction Biology Corporation
T7 sequence (P42681 1-527): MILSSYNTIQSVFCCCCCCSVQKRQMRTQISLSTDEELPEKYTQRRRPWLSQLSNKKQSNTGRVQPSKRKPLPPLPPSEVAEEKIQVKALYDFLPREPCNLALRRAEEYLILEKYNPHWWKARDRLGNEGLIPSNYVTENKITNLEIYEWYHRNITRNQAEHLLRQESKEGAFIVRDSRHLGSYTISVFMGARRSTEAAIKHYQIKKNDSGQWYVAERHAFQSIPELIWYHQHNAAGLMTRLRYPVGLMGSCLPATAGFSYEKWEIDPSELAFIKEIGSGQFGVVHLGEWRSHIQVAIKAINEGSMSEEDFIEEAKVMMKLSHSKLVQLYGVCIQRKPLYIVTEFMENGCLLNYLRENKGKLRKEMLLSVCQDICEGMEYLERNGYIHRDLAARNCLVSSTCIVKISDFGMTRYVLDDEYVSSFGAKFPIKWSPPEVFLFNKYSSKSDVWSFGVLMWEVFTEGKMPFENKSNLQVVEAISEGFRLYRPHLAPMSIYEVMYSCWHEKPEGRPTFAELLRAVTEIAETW
The experiment is described as follows: Radiometric kinase assay (Reaction Biology HotSpot). The following applies: radiometric HotSpot, five-dose singlicate, [ATP] = 10 μM. The class given is biochemical. As for the experimental part: as §1

Where [9] appears, read: 1.5-fold molar excess of inhibitor, 30 min.
The mark [10] stands for this setting: 1.5-fold molar excess of inhibitor, 60 min.
[11] abbreviates: 1.5-fold molar excess of inhibitor.
The mark [12] stands for this setting: 1.5-fold molar excess of inhibitor, 240 min.

T5 sequence (Q06187 whole entry, the tested form may be a part): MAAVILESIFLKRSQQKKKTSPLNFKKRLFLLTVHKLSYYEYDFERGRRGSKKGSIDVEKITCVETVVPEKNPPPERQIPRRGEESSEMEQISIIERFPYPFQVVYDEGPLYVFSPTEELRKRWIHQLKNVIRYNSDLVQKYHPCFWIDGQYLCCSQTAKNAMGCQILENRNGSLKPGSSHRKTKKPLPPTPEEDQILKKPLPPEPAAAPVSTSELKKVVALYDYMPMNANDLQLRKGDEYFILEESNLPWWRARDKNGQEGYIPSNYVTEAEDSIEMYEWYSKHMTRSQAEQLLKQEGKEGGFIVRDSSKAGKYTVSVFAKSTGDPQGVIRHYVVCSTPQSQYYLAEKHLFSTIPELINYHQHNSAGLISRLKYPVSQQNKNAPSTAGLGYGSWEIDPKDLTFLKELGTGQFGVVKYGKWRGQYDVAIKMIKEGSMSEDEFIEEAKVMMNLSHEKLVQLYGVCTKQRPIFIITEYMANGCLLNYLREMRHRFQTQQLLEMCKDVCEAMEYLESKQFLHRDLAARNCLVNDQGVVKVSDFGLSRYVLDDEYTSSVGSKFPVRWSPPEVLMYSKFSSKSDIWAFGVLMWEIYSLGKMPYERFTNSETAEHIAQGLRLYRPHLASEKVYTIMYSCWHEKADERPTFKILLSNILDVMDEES

As for `C=CC(=O)Nc1cccc(-c2c[nH]c3ncc(NC(=O)CC4CCCC4)cc23)c1` [Compound 12g, N-(3-(5-(2-cyclopentylacetamido)-1H-pyrrolo[2,3-b]pyridin-3-yl)phenyl)acrylamide], the half-inhibitory concentration (IC50) (as a rule, the point on the concentration scale where inhibition reaches its midpoint) in experiment [1] was above 10000 nM; in experiment [2], 6 nM; in experiment [6] it was 13 ± 2 nM; in experiment [7] it was 3 ± 1 nM. Further, the “BMX covalent adduct fraction, 30 min” value in experiment [3] (setting [9]) is recorded as 100%. Further, the “BMX covalent adduct fraction, 60 min” value in experiment [3] (setting [10]) is reported as 100%. Further, in experiment [3] (setting [11]), the “BMX covalent adduct fraction, 120 min” value turned out to be 99%. Also, the “native (unmodified) BMX fraction, 120 min” value in experiment [3] (setting [11]) is listed as 1%. Further, in experiment [3] (setting [12]), the “BMX covalent adduct fraction, 240 min” value was 100%. Also, the “covalent labeling of BMX (in words)” value in experiment [3] is listed as “complete labeling”. For the same compound, the values for the shift in melting temperature (ΔTm) at 10 µM in experiment [4] and in experiment [5] were 11.88 ± 0.07 °C and 11.9 ± 0.23 °C, respectively.
For `CCC(=O)Nc1cccc(-c2c[nH]c3ncc(C(=O)NC4CCCC4)cc23)c1` [Compound 11b, N-cyclopentyl-3-(3-propionamidophenyl)-1H-pyrrolo[2,3-b]pyridine-5-carboxamide], the half-maximal inhibitory concentration (IC50) in experiment [8] is above 10000 nM; in experiment [2] it was above 10000 nM; in experiment [6], 3710 ± 1200 nM; in experiment [7] it was above 10000 nM. Besides, the “native (unmodified) BMX fraction, 30 min” value in experiment [3] (setting [9]) is given as 100%. Besides, the “native (unmodified) BMX fraction, 60 min” value in experiment [3] (setting [10]) was found to be 100%. The “native (unmodified) BMX fraction, 120 min” value in experiment [3] (setting [11]) was found to be 100%. In experiment [3] (setting [12]), the “native (unmodified) BMX fraction, 240 min” value is 100%. Also, the “covalent labeling of BMX (in words)” value in experiment [3] is “no modification was detectable”.
Regarding `C=CC(=O)Nc1cccc(-c2c[nH]c3ncc(NC(=O)Cc4cccs4)cc23)c1` [Compound 12i, N-(3-(5-(2-(thiophen-2-yl)acetamido)-1H-pyrrolo[2,3-b]pyridin-3-yl)phenyl)acrylamide], the IC50 in experiment [2] was determined as 16 nM; in experiment [6] it was 37 ± 10 nM; in experiment [7] it was 17 ± 7 nM. Also, the “BMX covalent adduct fraction, 30 min” value in experiment [3] (setting [9]) is listed as 100%. The “BMX covalent adduct fraction, 60 min” value in experiment [3] (setting [10]) was determined as 100%. Moreover, the “BMX covalent adduct fraction, 120 min” value in experiment [3] (setting [11]) is reported as 100%. In experiment [3] (setting [12]), the “BMX covalent adduct fraction, 240 min” value worked out at 100%. In experiment [3], the “covalent labeling of BMX (in words)” value is given as “complete labeling”. In addition, the results for the shift in melting temperature (ΔTm) at 10 µM in experiment [4] and in experiment [5] were 11.5 °C and 10.1 °C, respectively.
